Where only a bound is given, the exact number is not on record here.

What all share (type): cell-based
The subject of one test is SW480 colon cancer cells. As to the kind of experiment: Cell viability assay (CellTiter-Blue). Conditions: Homo sapiens; for EC50: 96 h, SW480 cell viability, four days; for inhibition at 10 µM: SW480, 96 h, read-out: percent inhibition at 10 μM. In short, it runs like this: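 Fluorescence from resazurin reduced to resorufin by metabolically active cells was the read-out, taken after ~3 h with CellTiter-Blue.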

In test [1] the test system is primary human fibroblasts derived from IPF patients (LL29 cells). The experiment in a line: Inhibition of fibrotic process, αSMA staining in TGF-β1 treated fibroblasts. Conditions: Fibroblast; for EC50: 96 h, LL29 cells, TGF-β1 20 ng/mL, 4 days, % αSMA positive cells; for inhibition at 10 µM: read-out: percent inhibition at 10 μM. In outline: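 LL29 fibroblasts plated in F12 with 1% FBS were stimulated with TGF-β1 alongside compound, with TGF-β1 plus DMSO wells as controls. After 4 days of incubation, SYTOX green was added at 1 μM final for 30 min at room temperature.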

The subject of test [2] is primary human mesenchymal stem cells (hMSCs). The experiment in a line: Induction of chondrogenesis in hMSCs (nodule count). As to conditions: 6 days; for EC50: concentration required to induce 50% levels of chondrogenesis vs TGF-β3, read-out: Conc (nM) of 50% TGF-β3 activity; for Emax: relative to TGF-β3 (10 ng/mL) positive control, read-out: Max. Activity as % TGF-β3 activity. An excerpt:
Representative compounds were screened using primary human mesenchymal stem cells (hMSCs) to determine their ability to induce chondrogenesis (process by which cartilage is developed).
Primary human mesenchymal stem cells (hMSCs) were purchased from Lonza (Walkersville, Md.) and expanded in Mesenchymal Stem Cell Growth Media (Lonza). Cells between passage 3 and 6 were used for the experiments.
To image chondrogenic nodules, the cells were fixed using 4% formaldehyde (Electron Microscopy Sciences), and stained with 2 μg/mL Rhodamine B (Sigma-Aldrich) and 20 μM Nile Red (Sigma-Aldrich) [Johnson K., et. al, A Stem Cell-Based Approach to Cartilage Repair, Science, (2012). […] Number of nodules in each well was normalized to the average of 3 DMSO treated wells on the same plate using Excel (Microsoft Inc.). The normalized averages (fold change over DMSO) of 3 replicate wells for each compound concentration were calculated. Due to solubility limitations of some of the compounds, curve fitting was incomplete leading to inaccurate EC50 determinations.
Using TGF-β3 as a positive control, the concentration of representative compounds required to induce 50% levels of chondrogenesis is reported. In addition, the maximum activity of each compound and the respective dose that each compound reached maximum chondrogenesis activity is reported.

Another test concerns IL-6. The experiment in a line: IL-6 inhibition in LPS-stimulated THP-1 cells (HTRF). Conditions: Homo sapiens; for EC50: THP-1 cells, LPS 500 ng/mL, 22 hours, IL6 HTRF; for inhibition at 10 µM: THP-1, read-out: percent inhibition at 10 μM. In short, it runs like this: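 Serum-reduced (1% FBS, 24 h) THP-1 cells, 5000/well, exposed to compound 2 h at 37 °C, then stimulated with 500 ng/mL LPS for 22 h. Secreted IL-6 measured by HTRF (665/620 ratio), normalised to DMSO; EC50 by four-parameter fit, duplicates.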

The subject of test [3] is Wnt activity (Sp5-Luc reporter, SW480 colon carcinoma cells). The experiment in a line: Wnt activity screening assay, Sp5-Luc reporter gene in SW480 cells. As to conditions: Homo sapiens; for EC50: Sp5-Luc reporter, SW480 cells, overnight incubation; for inhibition at 10 µM: SW480, read-out: percent inhibition at 10 μM. In outline:
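SW480 cells stably carrying a luciferase reporter driven by an Sp5 promoter with eight TCF/LEF sites, plated overnight in 1% FBS medium at 37 °C. Luminescence read with BrightGlo. Signals normalized to DMSO-treated cells; EC50 from four-parameter variable-slope fit.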

Turning to `CN(C)Cc1cncc(-c2cnc3[nH]nc(-c4cc5c(-c6ccccc6F)cncc5[nH]4)c3c2)c1` [Compound 69, 1-(5-(3-(4-(2-Fluorophenyl)-1H-pyrrolo[2,3-c]pyridin-2-yl)-1H-pyrazolo [3,4-b]pyridin-5-yl)pyridin-3-yl)-N,N-dimethylmethanamine], the EC50 with SW480 colon cancer cells was found to be 1050 nM; in test [1], 1890 nM; in test [2] it was 30 nM; with IL-6, 131 nM; in test [3], 2490 nM. Besides, the Emax in test [2] was determined as 61%.

In the case of `O=C(Nc1cncc(-c2cnc3[nH]nc(-c4cc5c(-c6ccccc6F)cncc5[nH]4)c3c2)c1)C1CC1` [Compound 76, N-(5-(3-(4-(2-Fluorophenyl)-1H-pyrrolo[2,3-c]pyridin-2-yl)-1H-pyrazolo [3,4-b]pyridin-5-yl)pyridin-3-yl)cyclopropanecarboxamide], the EC50 in the test with SW480 colon cancer cells is 292 nM; in test [1] it was 110 nM; in test [2], 10 nM; in the test on IL-6, greater than 10000 nM; in test [3], 390 nM. Moreover, the Emax in test [2] is 52%. In addition, the inhibition at 10 µM in the test on IL-6 amounted to 22%.

Regarding `Cc1ccncc1-c1cnc2[nH]nc(-c3cc4c(-c5cccnc5)cncc4[nH]3)c2c1` [Compound 89, 5-(4-Methylpyridin-3-yl)-3-(4-(pyridin-3-yl)-1H-pyrrolo[2,3-c]pyridin-2-yl)-1H-pyrazolo[3,4-b]pyridine], the EC50 in the test with SW480 colon cancer cells is 3290 nM; in test [1] it was 1480 nM; with IL-6, 3440 nM; in test [3], 2250 nM. For the same molecule, the Emax in test [2] was found to be 17%.

Regarding `O=C(Nc1cncc(-c2cnc3[nH]nc(-c4cc5c(-c6cccnc6)cncc5[nH]4)c3c2)c1)c1ccccc1` [Compound 95, N-(5-(3-(4-(Pyridin-3-yl)-1H-pyrrolo[2,3-c]pyridin-2-yl)-1H-pyrazolo[3,4-b]pyridin-5-yl)pyridin-3-yl)benzamide], the EC50 in the test on SW480 colon cancer cells was greater than 10000 nM; in test [1], greater than 10000 nM; in test [2], 100 nM; in the test with IL-6, greater than 10000 nM; in test [3] it was greater than 10000 nM. Moreover, the inhibition at 10 µM was found to be 8.7% in the test with SW480 colon cancer cells, 0% in test [1], 46.5% in the test on IL-6 and 0% in test [3]. For the same molecule, the Emax in test [2] worked out at 155%.

For the molecule `CC(C)(C)CC(=O)Nc1cncc(-c2cnc3[nH]nc(-c4cc5c(-c6cccnc6)cncc5[nH]4)c3c2)c1` [Compound 100, 3,3-Dimethyl-N-(5-(3-(4-(pyridin-3-yl)-1H-pyrrolo[2,3-c]pyridin-2-yl)-1H-pyrazolo[3,4-b]pyridin-5-yl)pyridin-3-yl)butanamide], the EC50 in the test with SW480 colon cancer cells was greater than 10000 nM; in test [1], 1910 nM; with IL-6, 647 nM; in test [3] it was greater than 10000 nM. Moreover, the inhibition at 10 µM in the test with SW480 colon cancer cells worked out at 18.4%; in test [3], 17.3%. In test [2], the Emax turned out to be 37%.

For the molecule `c1cncc(-c2cncc3[nH]c(-c4n[nH]c5ncc(-c6cncnc6)cc45)cc23)c1` [Compound 111, 3-(4-(Pyridin-3-yl)-1H-pyrrolo[2,3-c]pyridin-2-yl)-5-(pyrimidin-5-yl)-1H-pyrazolo[3,4-b]pyridine], the EC50 with SW480 colon cancer cells was greater than 10000 nM; in test [1], 1720 nM; in the test with IL-6, 6590 nM; in test [3] it was greater than 10000 nM. Also, the values for the inhibition at 10 µM (in the test on SW480 colon cancer cells; in test [3]) were 8.6% and 11.9%, respectively. In addition, in test [2], the Emax turned out to be 24%.

On to `Nc1cncc(-c2cnc3[nH]nc(-c4cc5c(-c6ccncc6)cncc5[nH]4)c3c2)c1` [Compound 115, 5-(3-(4-(Pyridin-4-yl)-1H-pyrrolo[2,3-c]pyridin-2-yl)-1H-pyrazolo[3,4-b]pyridin-5-yl)pyridin-3-amine], for which the EC50 with SW480 colon cancer cells was greater than 10000 nM; in test [1] it was 3550 nM; in the test on IL-6, 412 nM; in test [3], greater than 10000 nM. The inhibition at 10 µM with SW480 colon cancer cells amounted to 17.8%; in test [3], 13.9%. Also, in test [2], the Emax came out at 32%.

Regarding `CN(C)c1cncc(-c2cnc3[nH]nc(-c4cc5c(-c6ccncc6)cncc5[nH]4)c3c2)c1` [Compound 119, N,N-Dimethyl-5-(3-(4-(pyridin-4-yl)-1H-pyrrolo[2,3-c]pyridin-2-yl)-1H-pyrazolo[3,4-b]pyridin-5-yl)pyridin-3-amine], the EC50 is greater than 10000 nM in the test with SW480 colon cancer cells; greater than 10000 nM in test [1]; 10 nM in test [2]; greater than 10000 nM in the test on IL-6; greater than 10000 nM in test [3]. The inhibition at 10 µM in the test with SW480 colon cancer cells was determined as 8.9%; in test [1], 0%; in the test with IL-6 it was 40.7%; in test [3], 2.5%. Besides, the Emax in test [2] turned out to be 191%.

Turning to `CC(C)(C)C(=O)Nc1cncc(-c2cnc3[nH]nc(-c4cc5c(-c6ccncc6)cncc5[nH]4)c3c2)c1` [Compound 120, N-(5-(3-(4-(Pyridin-4-yl)-1H-pyrrolo[2,3-c]pyridin-2-yl)-1H-pyrazolo[3,4-b]pyridin-5-yl)pyridin-3-yl)pivalamide], the EC50 with SW480 colon cancer cells was greater than 10000 nM; in test [1] it was 2720 nM; in the test with IL-6, 196 nM; in test [3], greater than 10000 nM. In addition, the inhibition at 10 µM was found to be 13.5% in the test on SW480 colon cancer cells and 5% in test [3]. Further, the Emax in test [2] worked out at 34%.

Take `CCCCC(=O)Nc1cncc(-c2cnc3[nH]nc(-c4cc5c(-c6ccncc6)cncc5[nH]4)c3c2)c1` [Compound 131, N-(5-(3-(4-(Pyridin-4-yl)-1H-pyrrolo[2,3-c]pyridin-2-yl)-1H-pyrazolo[3,4-b]pyridin-5-yl)pyridin-3-yl)pentanamide]: the EC50 was greater than 10000 nM in the test with SW480 colon cancer cells; greater than 10000 nM in test [1]; 10 nM in test [2]; greater than 10000 nM with IL-6; greater than 10000 nM in test [3]. For the same molecule, the inhibition at 10 µM in the test on SW480 colon cancer cells was 18.9%; in test [1], 27.9%; in the test with IL-6, 24.5%; in test [3], 3.4%. The Emax in test [2] is 70%.

`O=C(Nc1cncc(-c2cnc3[nH]nc(-c4cc5c(-c6ccncc6)cncc5[nH]4)c3c2)c1)C1CCC1` [Compound 133, N-(5-(3-(4-(Pyridin-4-yl)-1H-pyrrolo[2,3-c]pyridin-2-yl)-1H-pyrazolo[3,4-b]pyridin-5-yl)pyridin-3-yl)cyclobutanecarboxamide]: the EC50 with SW480 colon cancer cells is greater than 10000 nM; in test [1], 4920 nM; in the test on IL-6, greater than 10000 nM; in test [3] it was greater than 10000 nM. For the same molecule, the inhibition at 10 µM in the test with SW480 colon cancer cells is 18.9%; with IL-6, 43.3%; in test [3], 7%. Moreover, the Emax in test [2] came to 43%.

`FC1(F)CCN(Cc2cncc(-c3cnc4[nH]nc(-c5cc6c(-c7ccncc7)cncc6[nH]5)c4c3)c2)C1` [Compound 138, 5-(5-((3,3-Difluoropyrrolidin-1-yl)methyl)pyridin-3-yl)-3-(4-(pyridin-4-yl)-1H-pyrrolo[2,3-c]pyridin-2-yl)-1H-pyrazolo[3,4-b]pyridine]: the EC50 was greater than 10000 nM with SW480 colon cancer cells, 875 nM in test [1], 486 nM in the test with IL-6 and greater than 10000 nM in test [3]. Further, the results for the inhibition at 10 µM (in the test with SW480 colon cancer cells; in test [3]) were 24.1% and 40.8%, respectively. In addition, the Emax in test [2] was determined as 37%.

(Values after patent publication US20180221352A1, “3-(1H-PYRROLO[2,3-C]PYRIDIN-2-YL)-1H-PYRAZOLO[3,4-B]PYRIDINES AND THERAPEUTIC USES THEREOF” (Samumed, LLC, priority 2015, published 2018).)
